From patent US20100267680A1, “USE OF AT LEAST ONE OXIME DERIVATIVE OF CHOLEST-4-EN-3-ONE AS ANTIOXIDANTS” (priority 2007, published 2010)

Legend:
[1] = Oxidation of cumene to cumene hydroperoxide by oxygen with AIBN, HPLC-UV assay; settings: for % of reduction of the oxidation of the cumene / Area of the signal, in relative units, of the cumene hydroperoxide: 2 equivalents of AIBN, 2 hours 45° C.
Protocol: The oxidation of cumene at atmospheric pressure and at 37° C. by oxygen is known and described in the presence of a radical initiator such as AIBN (azobisisobutyronitrile) (Blanchard H. S., J. Am. Chem. Soc. 1959, 81, 4548). A recent publication used this reaction to classify the antioxidant potential of known products such as vitamin E (which is the universal reference), BHT (butylated hydroxytoluene) and other products.
In the following experiment we reproduced the same experimental conditions as those described in the publication of Becker D. A. et al. (J. Am. Chem. Soc. 2002, 124, 4678-4684). A high pressure liquid chromatography method coupled with a UV detector was used to detect cumene hydroperoxide. The column used is an Agilent Zorbax Eclipse XDB RPC8 column (150×4.6 mm) coupled with a UV detector fixed at 254 nm. The gradient used is detailed in the following table: […]
2 ml of cumene (AcrosOrganic) and 0.5 ml of methanol are mixed, azobisisobutyronitrile (AcrosOrganic) is added (2 equivalents) and the solution taken to 45° C. in order to accelerate the chemical reaction. The cumene hydroperoxide appears over time and is assayed by the HPLC method.
The technique used made it possible to compare the appearance of the cumene hydroperoxide in the presence of an antioxidant agent such as the claimed products and vitamin E used as reference product.

[2] = Competition with DMPO for tBuO radical, EPR quantification of DMPO-tBuO adduct; settings: for % inhibition of the DMPO-tBuO radical: compound 20 mM equimolar to DMPO
Protocol: The nitrones trap the radical species (R.; […]) and allow their observation by electron paramagnetic resonance (EPR) (Degray J. et al. Electron Spin Resonance, Ed N.M. Atherton, Atheaeum Press Ltd; Cambridge, 1994, 14, 246).
The incubation of the DMPO (Interchim-U2469) (20 mM) in deoxygenated toluene (Sigma-Aldrich) in the presence of the tBuO (tert-butoxyl) radical, generated by photolysis, makes it possible to identify and quantify by EPR the signal of the DMPO-tBuO radical. This signal is inhibited in the presence of an equimolar quantity of cholest-4-en-3-one oxime.
The EPR signal allows integration in the form of an area of the signal of the DMPO-tBuO adduct and therefore a relative quantification of this radical entity.
All the experiments were carried out on an X-band Bruker ESP300 device (9.5 GHz) at ambient temperature. The solutions were studied in a quartz EPR tube.

Beagles = assay: General toxicity study, oral once daily for 39 weeks; type: in vivo; settings: suspension in corn oil
Protocol: A general toxicity study was carried out on Beagles receiving cholest-4-èn-3-one oxime in suspension in corn oil by oral administration once daily for 39 weeks. The detailed toxicological analysis of this study made it possible to describe a dose with a no-observed-effect level (NOEL) at 50 mg/kg.

[3] = Pharmacokinetics in the dog, oral and intra-venous, plasma assay by HPLC-MS; type: in vivo; settings: 500 mg/kg oral route, suspension in corn oil, vs intra-venous
Protocol: A study of pharmacokinetics with administration by oral route in suspension in corn oil and by intra-venous route in solution in cremophor/ethanol/water (5%, 10%, 85%) made it possible to calculate the bioavailability of the product. The assay of the product in the plasma is carried out by a high pressure liquid chromatography method coupled with mass spectrometry.

[4] = Chemical stability of powder under ICH storage conditions, HPLC-UV total impurities; type: physicochemical; settings: for total impurities: powder
Protocol: These analyses were carried out using a high pressure liquid chromatography method coupled with a UV detector. This method makes it possible to quantify the impurities at a level of 0.05%.

Compound: vitamin E [reference compound]
- % of reduction of the oxidation of the cumene ([1]; 100 μM): 39%
- Area of the signal, in relative units, of the cumene hydroperoxide ([1]; 100 μM): 245 relative units

Compound: CC(C)CCC[C@@H](C)[C@H]1CC[C@H]2[C@@H]3CCC4=CC(=NO)CC[C@]4(C)[C@H]3CC[C@]12C [cholest-4-en-3-one oxime]
- Area of the DMPO-tBuO signal at 200 s in relative units ([2]; DMPO 20 mM + compound 20 mM, (t-BuO)2 20 mM, photolysis at 350 nm, 200 s): 3 relative units
- Area of the DMPO-tBuO signal at 400 s in relative units ([2]; DMPO 20 mM + compound 20 mM, (t-BuO)2 20 mM, photolysis at 350 nm, 400 s): 5.5 relative units
- DMPO-tBuO EPR signal in the presence of an equimolar quantity of compound ([2]; DMPO 20 mM in deoxygenated toluene, equimolar compound): inhibited
- % inhibition of the DMPO-tBuO radical ([2]; 200 s): 50%
- % inhibition of the DMPO-tBuO radical ([2]; 400 s): 40%
- inhibition of the level of the DMPO-tBuO signal radical ([2]; conclusion of Example 1): ~50%
- kinetics of inhibition of the DMPO-tBuO signal ([2]; rapid kinetics): less than 10 minutes
- % of reduction of the oxidation of the cumene ([1]; 100 μM): 38%
- Area of the signal, in relative units, of the cumene hydroperoxide ([1]; 100 μM): 250 relative units
- % of reduction of the oxidation of the cumene ([1]; 200 μM): 57%
- Area of the signal, in relative units, of the cumene hydroperoxide ([1]; 200 μM): 175 relative units
- reduction of the oxidation of the cumene by oxygen ([1]; conclusion of Example 2): approximately 40%
- activity compared with vitamin E ([1]; same concentrations, same conditions): activity similar to vitamin E
- no-observed-effect level (NOEL) (Beagles): 50 mg/kg
- bioavailability [3]: 6%
- change in the quality of the product ([4]; after 2 year's storage at 25° C.): No change in the quality of the product
- change in the quality of the product ([4]; after 6 months of storage at 40° C.): No change in the quality of the product
- total impurities ([4]; 25° C. under 60% relative humidity, T0): 1.8%
- total impurities ([4]; 25° C. under 60% relative humidity, T24 months): 1.8%
- total impurities ([4]; 40° C. under 75% relative humidity, T0): 2.1%
- total impurities ([4]; 40° C. under 75% relative humidity, T6 months): 1.9%
